This note sets out measurements from ChEMBL document CHEMBL3638722, “Inhibitors of cytochrome P450” (2015).

For orientation: IC50 means the concentration needed to halve the response being measured.

The target of the series is Cytochrome P450 3A4 (Homo sapiens, UniProt P08684). Nature of the series: For testosterone hydroxylase activity the final microsomal protein concentration was 0.5 mg/mL, the substrate concentration was 50 uM and the LC-MS internal standard was D7-labeled 6beta -hydroxytestosterone.
Chain of Cytochrome P450 3A4 (P08684 whole entry): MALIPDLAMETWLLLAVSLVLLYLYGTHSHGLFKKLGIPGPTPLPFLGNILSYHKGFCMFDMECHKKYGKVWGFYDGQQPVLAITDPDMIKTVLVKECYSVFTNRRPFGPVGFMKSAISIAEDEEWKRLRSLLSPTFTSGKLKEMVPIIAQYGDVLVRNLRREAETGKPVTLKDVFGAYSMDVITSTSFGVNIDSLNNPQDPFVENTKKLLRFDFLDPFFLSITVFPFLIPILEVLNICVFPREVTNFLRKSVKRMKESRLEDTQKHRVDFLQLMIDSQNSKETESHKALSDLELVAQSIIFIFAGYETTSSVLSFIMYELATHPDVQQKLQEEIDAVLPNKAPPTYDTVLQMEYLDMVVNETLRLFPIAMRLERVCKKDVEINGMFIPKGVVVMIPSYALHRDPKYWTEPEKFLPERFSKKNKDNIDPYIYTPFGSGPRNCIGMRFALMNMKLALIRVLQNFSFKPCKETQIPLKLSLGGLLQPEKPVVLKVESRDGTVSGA

Values joined by “and” are separate entries in the source; they are usually repeats but may differ in a detail not shown here. Equal entries are not always repeated.

Turning to `CC(C)c1nc(CN(C)C(=O)NC2(C(=O)N[C@H](CC[C@H](Cc3ccccc3)NC(=O)OCc3cncs3)Cc3ccccc3)CCNCC2)cs1`, the concentration for half-maximal inhibition (IC50) was 150 nM and 340 nM.
